Like-named read-outs stand apart in the source and are kept apart here.
Key:
Format in all cases: cell-based
[1] = test system: Escherichia coli; assay: Bacterial growth in pure culture with test composition (turbidity 660 nm); conditions: E. coli, 9 h, 40° C., anaerobic
[2] = test system: Clostridium perfringens; conditions: C. perfringens, 23 h, 40° C., anaerobic
[3] = test system: Campylobacter jejuni; assay: Bacterial growth in pure culture with test composition (SYBR Green fluorescence); conditions: C. jejuni, 19 h, 40° C., anaerobic
[4] = test system: Lactobacillus crispatus; assay: Bacterial growth in pure culture with test composition (turbidity 660 nm); conditions: L. crispatus, 23 h, 40° C., anaerobic
[5] = free pH, 0.01% (w/v) composition
[6] = free pH, 0.1% (w/v) composition
[7] = free pH, 0.3% (w/v) composition
[8] = pH 6.5 (neutralised with NaOH), 0.01% (w/v) composition
[9] = pH 6.5 (neutralised with NaOH), 0.3% (w/v) composition
[10] = pH 6.5 (neutralised with NaOH), 0.1% (w/v) composition

Compound: O=CO [Composition C, formic acid]
- Growth of Indicator Bacteria (% of Growth Control) [1, 5]: 80%
- Growth of Indicator Bacteria (% of Growth Control) [1, 6]: 20%
- Growth of Indicator Bacteria (% of Growth Control) [1, 7]: 15%
- Growth of Indicator Bacteria (% of Growth Control) [1, 8]: 110%
- Growth of Indicator Bacteria (% of Growth Control) [1, 9]: 45%
- Growth of Indicator Bacteria (% of Growth Control) [2, 5]: 75%
- Growth of Indicator Bacteria (% of Growth Control) [2, 6]: 20%
- Growth of Indicator Bacteria (% of Growth Control) [2, 7]: 15%
- Growth of Indicator Bacteria (% of Growth Control) [2, 8]: 100%
- Growth of Indicator Bacteria (% of Growth Control) [2, 10]: 65%
- Growth of Indicator Bacteria (% of Growth Control) [2, 9]: 60%
- Growth of Indicator Bacteria (% of Growth Control) [3, 5]: 170%
- Growth of Indicator Bacteria (% of Growth Control) [3, 6]: 20%
- Growth of Indicator Bacteria (% of Growth Control) [3, 7]: 10%
- Growth of Indicator Bacteria (% of Growth Control) [3, 8]: 170%
- Growth of Indicator Bacteria (% of Growth Control) [3, 10]: 115%
- Growth of Indicator Bacteria (% of Growth Control) [3, 9]: 65%
- Growth of Indicator Bacteria (% of Growth Control) [4, 5]: 95%
- Growth of Indicator Bacteria (% of Growth Control) [4, 6]: 90%
- Growth of Indicator Bacteria (% of Growth Control) [4, 7]: 75%
- Growth of Indicator Bacteria (% of Growth Control) [4, 8]: 120%
- Growth of Indicator Bacteria (% of Growth Control) [4, 10]: 115%
- Growth of Indicator Bacteria (% of Growth Control) [4, 9]: 95%

— patent US20140357718A1 (priority 2013, published 2014)
